target: SMYD2 (Homo sapiens (Human), UniProt Q9NRG4); test: SMYD2 biochemical assay (SMYD2 enzyme assay on peptide substrate, 3H-SAM Flashplate); settings: SMYD2 Biochem IC50, IC50 values are an average of n = 1 to n = 50
Sequence (Q9NRG4 whole entry): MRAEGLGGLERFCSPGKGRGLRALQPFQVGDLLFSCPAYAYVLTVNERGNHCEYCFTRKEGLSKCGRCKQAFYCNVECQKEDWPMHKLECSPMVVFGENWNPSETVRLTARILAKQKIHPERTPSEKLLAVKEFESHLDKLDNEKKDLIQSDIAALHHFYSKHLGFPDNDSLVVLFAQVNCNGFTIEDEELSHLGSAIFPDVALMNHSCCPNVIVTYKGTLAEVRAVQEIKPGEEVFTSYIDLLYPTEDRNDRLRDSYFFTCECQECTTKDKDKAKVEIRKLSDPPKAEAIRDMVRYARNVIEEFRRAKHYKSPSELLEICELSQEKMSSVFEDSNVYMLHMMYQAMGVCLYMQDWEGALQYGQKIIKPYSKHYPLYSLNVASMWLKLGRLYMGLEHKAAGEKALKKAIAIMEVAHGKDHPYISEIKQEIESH
From the text: S-adenosylmethionine (SAM), S-adenosylhomocysteine (SAH), bicine, Tween20, dimethylsulfoxide (DMSO), bovine skin gelatin (BSG), and Tris(2-carboxyethyl)phosphine hydrochloride (TCEP) were purchased from Sigma-Aldrich at the highest level of purity possible. ^3H-SAM was purchase from American Radiolabeled Chemicals with a specific activity of 80 Ci/mmol. 384-well streptavidin Flashplates were purchased from PerkinElmer.
The sequence was [sequence](K-Biot)-amide.
Production of Recombinant SMYD2 Enzymes for Biochemical Enzyme Activity Assays
Full length SMYD2 (NP_064582.2) was cloned into a pFastbac-Htb-lic vector with an N-terminal His6 tag and FLAG tag, preceded by a TEV protease cleavage site. The protein was expressed in Sf9 insect cells. Cells were resuspended in lysis buffer (25 mM HEPES-NaOH, pH 7.5, 200 mM NaCl, 5% glycerol, and 5 mM (3-ME) and lysed by sonication. The protein was purified by Ni-NTA (Qiagen), followed by TEV cleavage to remove the His6 tag, subtractive Ni-NTA (Qiagen), and gel filtration chromatography using an S200 column (GE Healthcare). Purified protein was stored in 20 mM Tris-HCl, pH 8.0, 100 mM NaCl, and 1 mM TCEP.
General Procedure for SMYD2 Enzyme Assays on Peptide Substrates
The assays were all performed in a buffer consisting of 20 mM Bicine (pH=7.6), 1 mM TCEP, 0.005% Bovine Skin Gelatin, and 0.002% Tween20, prepared on the day of use. […] DMSO (1 ul) was added to Columns 11, 12, 23, 24, rows A-H for the maximum signal control and 1 ul of SAH, a known product and inhibitor of SMYD2, was added to columns 11, 12, 23, 24, rows I-P for the minimum signal control. A cocktail (40 ul) containing the SMYD2 enzyme was added by Multidrop Combi (Thermo-Fisher). The compounds were allowed to incubate with SMYD2 for 30 min at room temperature, then a cocktail (10 ul) containing ^3H-SAM and peptide was added to initiate the reaction (final volume=51 ul). […] The assays were stopped by the addition of non-radioactive SAM (10 ul) to a final concentration of 600 uM, which dilutes the ^3H-SAM to a level where its incorporation into the peptide substrate is no longer detectable. 50 ul of the reaction in the 384-well polypropylene plate was then transferred to a 384-well Flashplate and the biotinylated peptides were allowed to bind to the streptavidin surface for at least 1 hour before being washed three times with 0.1% Tween20 in a Biotek ELx405 plate washer. The plates were then read in a PerkinElmer TopCount plate reader to measure the quantity of ^3H-labeled peptide bound to the Flashplate surface, measured as disintegrations per minute (dpm) or alternatively, referred to as counts per minute (cpm).
Where dpm=disintegrations per minute, cmpd=signal in assay well, and min and max are the respective minimum and maximum signal controls.
Where top and bottom are the normally allowed to float, but may be fixed at 100 or 0 respectively in a 3-parameter fit. The Hill Coefficient normally allowed to float but may also be fixed at 1 in a 3-parameter fit. I is the compound concentration.

Question: Which IC50 does the source give for `C[C@H](c1ccc(OCc2ccccc2)cc1)N1CC(NC(=O)c2cn(C3CC3)nn2)C1` (single isomer, unassigned) [compound 788] here?
Answer: 414 nM

Question: `C[C@@H](c1ccc(OCc2ccccc2)cc1)N1CC(NC(=O)c2cn(C3CC3)nn2)C1` (single isomer, unassigned) [compound 778] was tested. Which IC50 did it give?
Answer: 84.5 nM

same assay, conditions: read-out: SMYD2 Biochem IC50; IC50 values are an average of n = 1 to n = 50

Question: Which IC50 does the source give for `CC(c1ccc(OCc2ccccc2)c(Cl)c1)N1CC(NC(=O)c2cn(C3CC3)nn2)C1` (stereo not shown) [compound 868, N-(1-{1-[4-(benzyloxy)-3-chlorophenyl]ethyl}azetidin-3-yl)-1-cyclopropyl-1H-1,2,3-triazole-4-carboxamide] here?
Answer: 925 nM

Question: With `CC(C)N1CC(NC(=O)c2cn(CCN)nn2)C1` [compound 723, 1-(2-aminoethyl)-N-[1-(propan-2-yl)azetidin-3-yl]-1H-1,2,3-triazole-4-carboxamide] as the compound, how does the IC50 read?
Answer: > 50000 nM

Question: With `CNC(=O)c1ccc(COc2ccc(C(C)N3CC(NC(=O)c4cn(C5CC5)nn4)C3)cc2)cc1` (stereo not shown) [compound 963, 1-cyclopropyl-N-(1-(1-(4-((4-(methylcarbamoyl)benzyl)oxy)phenyl)ethyl)azetidin-3-yl)-1H-1,2,3-triazole-4-carboxamide] as the compound, how does the IC50 read?
Answer: 970 nM

Question: `CN(C)CCCNC(=O)c1cc(C2CC2)cnn1` [compound 867, 5-cyclopropyl-N-[3-(dimethylamino)propyl]pyridazine-3-carboxamide] was tested. Which IC50 did it give?
Answer: > 50000 nM

Question: Which IC50 does the source give for `O=C(NC1CN(Cc2cnn(Cc3ccc(C(F)(F)F)cc3)c2)C1)c1cn(C2CC2)nn1` [compound 943, 1-cyclopropyl-N-(1-((1-(4-(trifluoromethyl)benzyl)-1H-pyrazol-4-yl)methyl)azetidin-3-yl)-1H-1,2,3-triazole-4-carboxamide] here?
Answer: 14 nM

Question: How did the IC50 turn out when `COc1cc(F)ccc1C(C)N1CC(NC(=O)c2cn(C3CC3)nn2)C1` (stereo not shown) [compound 689, 1-cyclopropyl-N-{1-[1-(4-fluoro-2-methoxyphenyl)ethyl]azetidin-3-yl}-1H-1,2,3-triazole-4-carboxamide] was run?
Answer: 1890 nM

Question: How did the IC50 turn out when `CC(c1cccc(OCCN)c1Cl)N1CC(NC(=O)c2cn(C3CC3)nn2)C1` (stereo not shown) [compound 1009, N-(1-(1-(3-(2-aminoethoxy)-2-chlorophenyl)ethyl)azetidin-3-yl)-1-cyclopropyl-1H-1,2,3-triazole-4-carboxamide] was run?
Answer: 5700 nM

Question: With `COc1cccc(C(C)N2CC(NC(=O)c3cc(C4CC4)cnn3)C2)c1Cl` (stereo not shown) [compound 965, N-(1-(1-(2-chloro-3-memoxyphenyl)ethyl)azetidin-3-yl)-5-cyclopropylpyridazine-3-carboxamide] as the compound, how does the IC50 read?
Answer: 72 nM

Question: `CCN1CC(NC(=O)c2cc(C3CC3)cnn2)C1` [compound 814, 5-cyclopropyl-N-(1-ethylazetidin-3-yl)pyridazine-3-carboxamide] was tested. Which IC50 did it give?
Answer: 598 nM

Question: Which IC50 does the source give for `COc1cccc(C(C)N2CC(NC(=O)c3cc(C4CC4)cnn3)C2)c1Cl` (stereo not shown) [compound 851, N-{1-[1-(2-chloro-3-methoxyphenyl)ethyl]azetidin-3-yl}-5-cyclopropylpyridazine-3-carboxamide] here?
Answer: 72.1 nM

Question: How did the IC50 turn out when `NCc1cccc(CN2CC(NC(=O)c3cn(C4CC4)nn3)C2)c1` [compound 754, N-(1-{[3-(aminomethyl)phenyl]methyl}azetidin-3-yl)-1-cyclopropyl-1H-1,2,3-triazole-4-carboxamide] was run?
Answer: 7340 nM

Question: With `O=C(NC1CN(C(CO)c2ccccc2)C1)c1cn(C2CC2)nn1` (stereo not shown) [compound 674, 1-cyclopropyl-N-[1-(2-hydroxy-1-phenylethyl)azetidin-3-yl]-1H-1,2,3-triazole-4-carboxamide] as the compound, how does the IC50 read?
Answer: 4270 nM

Question: `COc1cccc(C(C)N2CC(NC(=O)c3cc(C4CC4)cnn3)C2)c1OC` (stereo not shown) [compound 861, 5-cyclopropyl-N-{1-[1-(2,3-dimethoxyphenyl)ethyl]azetidin-3-yl}pyridazine-3-carboxamide] was tested. Which IC50 did it give?
Answer: 121 nM

Question: `CCCN1CC(NC(=O)c2cn(C3CC3)nn2)C1` [compound 660, 1-cyclopropyl-N-(1-propylazetidin-3-yl)-1H-1,2,3-triazole-4-carboxamide] was tested. Which IC50 did it give?
Answer: 1170 nM

Question: For `CN1CC(NC(=O)c2cc(C3CC3)cnn2)C1` [compound 825, 5-cyclopropyl-N-(1-methylazetidin-3-yl)pyridazine-3-carboxamide], which IC50 is on record?
Answer: 391 nM

Question: How did the IC50 turn out when `CC(NC(=O)c1cc(C2CC2)cnn1)C1CCCCN1C` (stereo not shown) [compound 981, 5-cyclopropyl-N-(1-(1-methylpiperidin-2-yl)ethyl)pyridazine-3-carboxamide] was run?
Answer: > 50000 nM

Question: Which IC50 does the source give for `CC(C)(C)c1ccc(Cn2cc(CN3CC(NC(=O)c4cn(C5CC5)nn4)C3)cn2)cc1` [compound 947, N-(1-((1-(4-(tert-butyl)benzyl)-1H-pyrazol-4-yl)methyl)azetidin-3-yl)-1-cyclopropyl-1H-1,2,3-triazole-4-carboxamide] here?
Answer: 56 nM

Question: Which IC50 does the source give for `O=C(NC1CN(Cc2cnn(Cc3ccccc3Cl)c2)C1)c1cn(C2CC2)nn1` [compound 942, N-(1-((1-(2-chlorobenzyl)-1H-pyrazol-4-yl)methyl)azetidin-3-yl)-1-cyclopropyl-1H-1,2,3-triazole-4-carboxamide] here?
Answer: 110 nM

Question: `CS(=O)(=O)CC(c1ccccc1)N1CC(NC(=O)c2cn(C3CC3)nn2)C1` (stereo not shown) [compound 773, 1-cyclopropyl-N-[1-(2-methanesulfonyl-1-phenylethyl)azetidin-3-yl]-1H-1,2,3-triazole-4-carboxamide] was tested. Which IC50 did it give?
Answer: > 50000 nM

Question: Which IC50 does the source give for `CC(c1cc(Cl)ccc1Cl)N1CC(NC(=O)c2cc(C3CC3)ccn2)C1` (stereo not shown) [compound 962, 4-cyclopropyl-N-(1-(1-(2,5-dichlorophenyl)ethyl)azetidin-3-yl)picolinamide] here?
Answer: 480 nM

Question: For `CCC(c1ccccc1F)N1CC(NC(=O)c2cn(C3CC3)nn2)C1` (stereo not shown) [compound 798, 1-cyclopropyl-N-{1-[1-(2-fluorophenyl)propyl]azetidin-3-yl}-1H-1,2,3-triazole-4-carboxamide], which IC50 is on record?
Answer: 425 nM

Question: `CC(NC(=O)c1cc(C2CC2)cnn1)C1CNC1` (stereo not shown) [compound 839, N-[1-(azetidin-3-yl)ethyl]-5-cyclopropylpyridazine-3-carboxamide] was tested. Which IC50 did it give?
Answer: 18200 nM

Question: With `CC(O)COc1ccc(CN2CC(NC(=O)c3cn(C4CC4)nn3)C2)cc1` (stereo not shown) [compound 822, 1-cyclopropyl-N-(1-{[4-(2-hydroxypropoxy)phenyl]methyl}azetidin-3-yl)-1H-1,2,3-triazole-4-carboxamide] as the compound, how does the IC50 read?
Answer: 1970 nM

Question: How did the IC50 turn out when `COc1cccc(C(C)N2CC(NC(=O)c3cn(C4CC4)nn3)C2)c1` (stereo not shown) [compound 679, 1-cyclopropyl-N-{1-[1-(3-methoxyphenyl)ethyl]azetidin-3-yl}-1H-1,2,3-triazole-4-carboxamide] was run?
Answer: 1450 nM

Question: `COc1cccc(O)c1C(C)N1CC(NC(=O)c2cn(C3CC3)nn2)C1` (stereo not shown) [compound 750, 1-cyclopropyl-N-{1-[1-(2-hydroxy-6-methoxyphenyl)ethyl]azetidin-3-yl}-1H-1,2,3-triazole-4-carboxamide] was tested. Which IC50 did it give?
Answer: 1280 nM

Question: With `CCCCOc1ccc(C(C)N2CC(NC(=O)c3cn(C4CC4)nn3)C2)cc1` (stereo not shown) [compound 681, N-{1-[1-(4-butoxyphenyl)ethyl]azetidin-3-yl}-1-cyclopropyl-1H-1,2,3-triazole-4-carboxamide] as the compound, how does the IC50 read?
Answer: 1290 nM

Question: Which IC50 does the source give for `CC(C)C(c1ccccc1)N1CC(NC(=O)c2cn(C3CC3)nn2)C1` (stereo not shown) [compound 787, 1-cyclopropyl-N-[1-(2-methyl-1-phenylpropyl)azetidin-3-yl]-1H-1,2,3-triazole-4-carboxamide] here?
Answer: 1430 nM

Question: How did the IC50 turn out when `C[C@@H](c1cccc(OCCO)c1Cl)N1CC(NC(=O)c2cn(C3CC3)nn2)C1` (single isomer, unassigned) [compound 831] was run?
Answer: 57.8 nM

Question: For `O=C(NC1CN(Cc2cnn(Cc3ccc(Cl)cc3)c2)C1)c1cn(C2CC2)nn1` [compound 985, N-(1-((1-(4-Chlorobenzyl)-1H-pyrazol-4-yl)methyl)azetidin-3-yl)-1-cyclopropyl-1H-1,2,3-triazole-4-carboxamide], which IC50 is on record?
Answer: 3.9 nM

Question: For `COc1c(CO)cccc1CN1CC(NC(=O)c2cn(C3CC3)nn2)C1` [compound 772, 1-cyclopropyl-N-(1-{[3-(hydroxymethyl)-2-methoxyphenyl]methyl}azetidin-3-yl)-1H-1,2,3-triazole-4-carboxamide], which IC50 is on record?
Answer: 10800 nM

Question: `CCC(c1cccc(F)c1)N1CC(NC(=O)c2cn(C3CC3)nn2)C1` (stereo not shown) [compound 711, 1-cyclopropyl-N-{1-[1-(3-fluorophenyl)propyl]azetidin-3-yl}-1H-1,2,3-triazole-4-carboxamide] was tested. Which IC50 did it give?
Answer: 1010 nM

Question: How did the IC50 turn out when `COc1ccc(C(C)N2CC(NC(=O)c3cn(C4CC4)nn3)C2)c(OC)c1` (stereo not shown) [compound 801, 1-cyclopropyl-N-{1-[1-(2,4-dimethoxyphenyl)ethyl]azetidin-3-yl}-1H-1,2,3-triazole-4-carboxamide] was run?
Answer: 1060 nM

Question: Which IC50 does the source give for `O=C(NC1CN(Cc2cnn(Cc3ccccc3)c2)C1)c1cc(C2CC2)on1` [compound 955, N-(1-((1-benzyl-1H-pyrazol-4-yl)methyl)azetidin-3-yl)-5-cyclopropylisoxazole-3-carboxamide] here?
Answer: 73 nM

Question: Which IC50 does the source give for `CC(c1ccc2c(c1)OCCO2)N1CC(NC(=O)c2cn(C3CC3)nn2)C1` (stereo not shown) [compound 767, 1-cyclopropyl-N-{1-[1-(2,3-dihydro-1,4-benzodioxin-6-yl)ethyl]azetidin-3-yl}-1H-1,2,3-triazole-4-carboxamide] here?
Answer: 576 nM

Question: Which IC50 does the source give for `O=C(NC1CN(C(c2ccccc2)C2CCC2)C1)c1cn(C2CC2)nn1` (stereo not shown) [compound 731, N-{1-[cyclobutyl(phenyl)methyl]azetidin-3-yl}-1-cyclopropyl-1H-1,2,3-triazole-4-carboxamide] here?
Answer: 1520 nM

Question: How did the IC50 turn out when `CCC(c1ccc(C(F)(F)F)cc1)N1CC(NC(=O)c2cn(C3CC3)nn2)C1` (stereo not shown) [compound 700, 1-cyclopropyl-N-(1-{1-[4-(trifluoromethyl)phenyl]propyl}azetidin-3-yl)-1H-1,2,3-triazole-4-carboxamide] was run?
Answer: 2670 nM

Question: Which IC50 does the source give for `CC(NC(=O)c1cn(C2CC2)nn1)C1CCCCN1` (stereo not shown) [compound 1000, 1-cyclopropyl-N-(1-(piperidin-2-yl)ethyl)-1H-1,2,3-triazole-4-carboxamide] here?
Answer: > 50000 nM

Question: `O=C(NC1CN(Cc2cnn(Cc3ccc(Cl)cc3)c2)C1)c1cc(C2CC2)cnn1` [compound 929, N-(1-((1-(4-chlorobenzyl)-1H-pyrazol-4-yl)methyl)azetidin-3-yl)-5-cyclopropylpyridazine-3-carboxamide] was tested. Which IC50 did it give?
Answer: 1.2 nM
